# Measured values taken from patent publication US20160235727A1, “NOVEL PYRROLIDINE DERIVED BETA 3 ADRENERGIC RECEPTOR AGONISTS” (Merck Sharp & Dohme Corp., priority 2013, published 2016).
# Columns and labels:
# [1] = system: rats; settings: cited from earlier work
# [2] = biological target: T1, human β3-AR (Homo sapiens, UniProt P13945); assay: cAMP functional agonist assay (LANCE TR-FRET) in CHO cells expressing cloned human β3-AR; format: cell-based; settings: for EC50: CHO cells stably expressing cloned human β3-adrenoceptor, cAMP release, read-out: Human β3-AR Agonism EC50; for Human β3-AR Agonist Activity (%): percent maximum activation relative to isoproterenol; for Fold drop in potency vs. 2-chloropyridine analog: EC50 of comparative example divided by EC50 of corresponding 2-chloropyridine compound
# T1 construct: expressed in transfected cells; host or cells: CHO (Chinese hamster ovary) cells, stably transfected
# T1 sequence (P13945 whole entry): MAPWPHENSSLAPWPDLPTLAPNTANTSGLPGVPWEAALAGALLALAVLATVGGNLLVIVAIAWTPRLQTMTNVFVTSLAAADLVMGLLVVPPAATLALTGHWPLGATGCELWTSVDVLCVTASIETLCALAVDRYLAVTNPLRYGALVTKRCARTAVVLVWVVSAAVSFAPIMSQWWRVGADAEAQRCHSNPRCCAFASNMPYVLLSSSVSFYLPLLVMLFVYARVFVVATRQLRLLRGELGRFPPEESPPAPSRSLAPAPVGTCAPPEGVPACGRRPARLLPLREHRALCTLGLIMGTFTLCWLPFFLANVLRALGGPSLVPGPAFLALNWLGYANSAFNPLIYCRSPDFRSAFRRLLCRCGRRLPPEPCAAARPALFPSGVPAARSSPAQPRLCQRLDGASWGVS
# [3] = intravenous, cystometric studies
EC50 [2] [nM],Human β3-AR Agonist Activity (%) [2] [%],Fold drop in potency vs. 2-chloropyridine analog [2] [fold],Compound,bladder pressure ([1]; intravenous administration),"bladder capacity [1, 3]","micturition interval [1, 3]","residual urine volume [1, 3]"
–,–,–,C[C@H](Cc1ccc2c(c1)OC(C(=O)[O-])(C(=O)[O-])O2)NC[C@H](O)c1cccc(Cl)c1.[Na+].[Na+] [CL316243],reduces,increases,prolongation,without increasing
3,93,–,"Cc1cc(C(Cc2ccccc2)N(C)C(=O)c2ccc(C[C@@H]3CC[C@H]([C@H](O)c4ccc(Cl)nc4)N3)cc2)[nH]n1 (stereo partly drawn) [Example 6-A, 4-(((2S,5R)-5-((R)-(6-chloropyridin-3-yl)(hydroxy)methyl)pyrrolidin-2-yl)methyl)-N-methyl-N-(1-(5-methyl-1H-pyrazol-3-yl)-2-phenylethyl)benzamide]",–,–,–,–
17,99,1.5,"CN(Cc1cnccn1)C(=O)c1ccc(C[C@@H]2CC[C@H]([C@H](O)c3ccccc3)N2)cc1 [Example 40-B, 4-(((2S,5R)-5-((R)-hydroxy(phenyl)methyl)pyrrolidin-2-yl)methyl)-N-methyl-N-(pyrazin-2-ylmethyl)benzamide]",–,–,–,–
44,101,–,"CN(Cc1cncc(C(=O)O)c1)C(=O)c1ccc(C[C@@H]2CC[C@H]([C@H](O)c3ccc(Cl)nc3)N2)cc1 [Example 33-A, 5-((4-(((2S,5R)-5-((R)-(6-chloropyridin-3-yl)(hydroxy)methyl)pyrrolidin-2-yl)methyl)-N-methylbenzamido)methyl)nicotinic acid]",–,–,–,–
16,104,2.3,"CC(O)c1cncc(CN(C)C(=O)c2ccc(C[C@@H]3CC[C@H]([C@H](O)c4ccccc4)N3)cc2)c1 (stereo partly drawn) [Example 31-B, 4-(((2S,5R)-5-((R)-hydroxy(phenyl)methyl)pyrrolidin-2-yl)methyl)-N-((5-(1-hydroxyethyl)pyridin-3-yl)methyl)-N-methylbenzamide]",–,–,–,–

Compound,EC50 [2] [nM],Human β3-AR Agonist Activity (%) [2] [%],Fold drop in potency vs. 2-chloropyridine analog [2] [fold],bladder pressure ([1]; intravenous administration),"bladder capacity [1, 3]","micturition interval [1, 3]","residual urine volume [1, 3]"
"CN(Cc1n[nH]c2c1CCCC2)C(=O)c1ccc(C[C@@H]2CC[C@H]([C@H](O)c3ccc(Cl)nc3)N2)cc1 [Example 14-A, 4-(((2S,5R)-5-((R)-(6-chloropyridin-3-yl)(hydroxy)methyl)pyrrolidin-2-yl)methyl)-N-methyl-N-((4,5,6,7-tetrahydro-1H-indazol-3-yl)methyl)benzamide]",3,108,–,–,–,–,–
